From patent US20160038516A1, “COMBINATION CANCER THERAPY USING BISPHOSPHONATES AND ANTI-EGFR AGENTS” (Mone Zaidi Consulting, Inc., priority 2012, published 2016)
“Also recorded” adds a separate entry of the source.

Columns and labels:
[1] = test system: HCC827 (del746-750) lung cancer cell line; assay type: cell-based
Procedure: (§1) To validate this, we evaluated the cellular effects of bisphosphonates in EGFR-negative and EGFR-positive cancer cell lines. Mutated cancer cell lines, namely H520, H1666, H3255, HC827, A549, H1650, MCF-7, Caco-2, SW620, and SW480, were grown using standard protocols, and exposed to bisphosphonates. Thereafter, the cells were subject to the MTT assay to assess viability using a commercial kit. Additionally, in certain instances, annexin V staining was performed using a previously described protocol. Quantitative PCR (qPCR) for BCL, Bax, survivin, as well as for the thirteen bisphosphonate signature genes (FIG. 1) was carried out. Protein extracts were subject to SDS-PAGE followed by Western immunoblotting using antibodies to PARP, Akt (total and phosphorylated), Erk (total and phosphorylated), cyclin D1, cyclin B1, PCNA, and GAPDH (Santa Cruz, USA). Flow cytometry and colony forming assays were also performed.
(§2) Based on this prediction, and the common occurrence of these mutations in lung cancer patients, we examined the effect of available approved bisphosphonates on lung cancer cell lines that are driven by the L858R (H3255) or del746-750 (HCC827) mutation (FIGS. 6 and 7).

[2] = test system: osteoclast formation; assay: Osteoclast formation assays in vitro; assay type: cell-based; details: data not shown
Procedure: We interrogated CMAP with this gene signature to identify chemicals with similar genomic mechanisms to bisphosphonates. Drug-drug matching was performed by a nonparametric, rank-based algorithm using Kolmogorov-Smirnov statistic. Gene Set Enrichment Analysis (GSEA) examined shared mechanisms of action to reveal both mimics and anti-mimics of a given compound or disease. Of the chemicals displaying the highest enrichment scores, the top two were anti-cancer agents, namely the PARP inhibitor 1,5-isoquinolinediol, and a first-generation EGFR kinase inhibitor tyrphostin AG1478 (FIG. 2). These compounds were confirmed as “true” bisphosphonate mimetics using osteoclast formation assays in vitro. As with bisphosphonates, osteoclast formation was inhibited by both 1,5-isoquinolinediol and tyrphostin AG1478, the latter in a concentration-dependent manner (data not shown).

[3] = test system: H3255 (L858R) lung cancer cell line
Procedure: as §1, §2

[4] = test system: MDA-MB-231 cells; assay: MTT cell viability, MDA-MB-231; assay type: cell-based; details: MDA-MB-231, overexpress EGFR
Source text: (§3) Thereafter, the cells were subject to the MTT assay to assess viability using a commercial kit.

[5] = test system: BT474 cells; assay: MTT cell viability, BT474; assay type: cell-based; details: BT474, overexpress Her2
Source text: as §3

[6] = test system: HCC827 cells; assay: Colony formation, HCC827; assay type: cell-based; details: tiludronate 40 μM
Procedure: as §1, §2

[7] = test system: EGFR-expressing colon cells (SW480); assay: Colony formation (clonogenic assay), SW480; assay type: cell-based
Procedure: as §1

[8] = test system: EGFR negative (SW620) colon cancer cell line; assay: Colony formation (clonogenic assay), SW620; assay type: cell-based
Procedure: as §1

[9] = test system: H1975 (L858R/T790M) lung adenocarcinoma cell line; assay: Colony formation, H1975; assay type: cell-based
Procedure: To test this hypothesis, colony formation and cell viability assays were carried out using a L858R/T790M-derived lung adenocarcinoma cell line, H1975.

[10] = test system: MDA-MB-231 cells; assay: Colony formation, MDA-MB-231; assay type: cell-based; details: tiludronate 20 μM, data not shown
[11] = test system: EGFR-expressing (MDA-MB-231) breast cancer cell line; assay: FACS cell cycle profile (sub-G1), MDA-MB-231; assay type: cell-based
[12] = test system: HER2-expressing (BT474) breast cancer cell line; assay: FACS cell cycle profile (sub-G1), BT474; assay type: cell-based
[13] = test system: non-EGFR, non-HER2-expressing (MDA-MB-453) breast cancer cell line; assay: FACS cell cycle profile (sub-G1), MDA-MB-453; assay type: cell-based
[14] = molecular target: T1, recombinant Her2 (Homo sapiens, UniProt P04626); assay: Cell-free in vitro kinase assay using recombinant Her2 (Kinase-Glo); assay type: biochemical; details: incubated 30 minutes with 50 ng recombinant Her2
T1 construct: purchased GENWAY
T1 sequence (P04626 23-1255): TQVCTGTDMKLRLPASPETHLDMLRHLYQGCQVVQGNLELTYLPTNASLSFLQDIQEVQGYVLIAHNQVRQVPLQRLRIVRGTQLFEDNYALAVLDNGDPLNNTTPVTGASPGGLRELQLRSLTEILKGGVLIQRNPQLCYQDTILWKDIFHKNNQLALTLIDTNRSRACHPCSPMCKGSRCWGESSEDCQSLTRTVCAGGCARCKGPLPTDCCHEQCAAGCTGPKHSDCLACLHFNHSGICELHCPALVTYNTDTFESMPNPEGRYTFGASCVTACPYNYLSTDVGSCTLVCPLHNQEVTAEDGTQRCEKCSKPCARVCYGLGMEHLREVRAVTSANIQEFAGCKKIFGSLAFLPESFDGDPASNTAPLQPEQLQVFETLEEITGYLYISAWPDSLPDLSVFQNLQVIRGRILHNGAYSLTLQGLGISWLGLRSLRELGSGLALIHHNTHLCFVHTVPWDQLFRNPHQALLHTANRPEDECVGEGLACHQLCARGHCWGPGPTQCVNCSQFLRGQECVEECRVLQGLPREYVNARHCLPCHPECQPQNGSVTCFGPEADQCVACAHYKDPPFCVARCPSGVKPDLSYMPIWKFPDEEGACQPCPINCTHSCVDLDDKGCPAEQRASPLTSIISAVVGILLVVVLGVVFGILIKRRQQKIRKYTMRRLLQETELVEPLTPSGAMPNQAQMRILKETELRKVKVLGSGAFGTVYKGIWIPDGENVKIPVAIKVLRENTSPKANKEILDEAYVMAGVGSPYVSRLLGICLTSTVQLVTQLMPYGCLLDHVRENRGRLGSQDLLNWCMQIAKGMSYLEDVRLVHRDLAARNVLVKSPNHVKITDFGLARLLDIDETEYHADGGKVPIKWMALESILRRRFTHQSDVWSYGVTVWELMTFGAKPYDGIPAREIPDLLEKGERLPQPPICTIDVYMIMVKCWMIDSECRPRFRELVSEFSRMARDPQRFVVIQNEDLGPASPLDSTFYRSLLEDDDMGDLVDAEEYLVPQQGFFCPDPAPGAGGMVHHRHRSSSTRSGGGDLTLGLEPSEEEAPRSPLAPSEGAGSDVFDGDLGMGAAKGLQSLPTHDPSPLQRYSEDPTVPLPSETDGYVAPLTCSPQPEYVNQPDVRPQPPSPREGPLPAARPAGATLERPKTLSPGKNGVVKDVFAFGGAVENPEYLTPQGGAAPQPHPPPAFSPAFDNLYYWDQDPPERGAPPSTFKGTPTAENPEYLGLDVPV
Procedure: We also performed a cell-free in vitro kinase assay to determine if bisphosphonates could inhibit Her2 activity. Briefly, Ert, ZA, Ris, MA, or Til (doses as shown in FIG. 28A) were incubated for 30 minutes with 50 ng recombinant Her2 or EGFR^L858R protein (GENWAY) at 4° C. and tyrosine kinase activity was measured. Following addition of assay buffer (SIGMA) which contained the poly(Glu, Tyr) (4:1) substrate and ATP, the kinase reaction was allowed to proceed for 30 minutes at 30° C. An equal volume of Kinase-Glo substrate (PROMEGA) was then added, and luminescence read manually (TD-20/20, TURNER DESIGN).

[15] = test system: lung cancer cell line A549; details: A549, wild type EGFR, ras mutation driven
Procedure: as §1

[16] = test system: HCC827 cells; assay: FACS analysis and Western blotting for cell cycle and apoptosis, HCC827; assay type: cell-based
Procedure: as §1

[17] = test system: HCC827 cells; details: mouse, in vivo
Procedure: To verify that that the in vitro experiments described above translated to in vivo efficacy, the effect of bisphosphonates and EGFR inhibitors on tumors in mice were evaluated. HCC827 cells (1×10^8) were injected into the right flank of 6- to 8-week-old female BALB/c nu/nu mice. […] A total of 10 treatments were given, with a 48-hour rest period between injections. Tumor volumes were measured during the rest period following each treatment.
To verify the in vivo mechanism of action, Western analysis and immunohistochemistry were performed on tumor samples at the end of the 10-treatment course. For Western analysis, whole cell protein extracts were obtained with radio-immunoprecipitation assay buffer following standard protocols (Santa Cruz Biotechnology). […] Biotinylated anti-rabbit IgG (E0432, Dako) was used as secondary antibody. Staining was visualized using DAB, and slides were counterstained with hematoxylin, dehydrated, and mounted. Bright-field and fluorescent images were captured using a Stereoscope or Axioplan 2 IE microscope (Zeiss).

[18] = molecular target: recombinant EGFR (Homo sapiens, UniProt P00533); details: 100 μM, incubated 1 hour
Sequence of recombinant EGFR (P00533 25-1210): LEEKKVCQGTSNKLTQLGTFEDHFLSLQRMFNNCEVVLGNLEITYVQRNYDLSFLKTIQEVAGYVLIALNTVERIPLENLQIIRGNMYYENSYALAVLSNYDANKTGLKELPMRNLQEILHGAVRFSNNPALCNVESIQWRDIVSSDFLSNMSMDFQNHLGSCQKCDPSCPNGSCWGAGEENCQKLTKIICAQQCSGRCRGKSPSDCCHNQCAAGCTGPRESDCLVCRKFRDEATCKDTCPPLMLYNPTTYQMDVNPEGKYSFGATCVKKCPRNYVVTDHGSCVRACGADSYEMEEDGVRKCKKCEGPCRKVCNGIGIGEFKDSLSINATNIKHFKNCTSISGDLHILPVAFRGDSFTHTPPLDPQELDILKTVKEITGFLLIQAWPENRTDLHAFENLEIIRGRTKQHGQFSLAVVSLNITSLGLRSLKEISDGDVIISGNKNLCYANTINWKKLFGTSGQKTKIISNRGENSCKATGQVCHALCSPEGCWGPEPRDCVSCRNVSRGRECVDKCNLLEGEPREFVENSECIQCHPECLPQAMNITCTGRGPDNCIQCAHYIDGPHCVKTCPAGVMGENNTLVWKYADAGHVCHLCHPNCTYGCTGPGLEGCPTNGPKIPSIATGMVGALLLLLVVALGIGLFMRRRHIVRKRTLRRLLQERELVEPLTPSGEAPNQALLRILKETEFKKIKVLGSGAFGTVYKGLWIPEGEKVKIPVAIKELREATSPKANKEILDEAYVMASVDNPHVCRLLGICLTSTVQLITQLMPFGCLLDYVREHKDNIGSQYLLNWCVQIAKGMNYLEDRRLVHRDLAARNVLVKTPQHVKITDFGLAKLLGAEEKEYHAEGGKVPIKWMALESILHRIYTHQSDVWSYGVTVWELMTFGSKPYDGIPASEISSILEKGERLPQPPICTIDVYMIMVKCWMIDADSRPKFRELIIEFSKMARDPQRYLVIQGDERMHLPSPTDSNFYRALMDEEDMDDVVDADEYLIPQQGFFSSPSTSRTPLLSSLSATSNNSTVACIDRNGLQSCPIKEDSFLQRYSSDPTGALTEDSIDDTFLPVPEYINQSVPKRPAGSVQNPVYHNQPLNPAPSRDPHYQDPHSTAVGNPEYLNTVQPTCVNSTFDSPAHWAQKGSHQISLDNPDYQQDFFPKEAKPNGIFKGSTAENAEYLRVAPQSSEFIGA
Source text: We used a cell-free in vitro kinase assay using recombinant EGF receptor (EGFR) to determine whether bisphosphonates inhibit the EGFR directly or indirectly. […] A kinase reaction was stimulated with the addition of ATP, following which phosphorylation of the substrate […] was detected using a horseradish peroxidase (HRP)-conjugated anti-phosphotyrosine antibody.

SMILES: NCCCCCC(O)(P(=O)(O)O)P(=O)(O)O [neridronate]
- cell viability / cell survival [1]: failed to affect HCC827 cell viability

SMILES: COc1cc2ncnc(Nc3cccc(Cl)c3)c2cc1OC [tyrphostin AG1478]
- osteoclast formation [2]: inhibited

SMILES: Oc1cccc2c(O)nccc12 [1,5-isoquinolinediol]
- osteoclast formation [2]: inhibited

SMILES: NCCC(O)(P(=O)(O)O)P(=O)(O)O [pamidronate]
- cell viability / cell survival [1]: failed to affect HCC827 cell viability

SMILES: O=P(O)(O)C(Sc1ccc(Cl)cc1)P(=O)(O)O [tiludronate]
- cell viability / cell survival [3]: failed to affect cell viability; also recorded: without effect
- cell viability / cell survival [1]: failed to affect cell viability; also recorded: without effect
- cell viability [4]: has no effect
- cell viability [5]: has no effect
- colony formation [6]: not seen
- colony formation [7]: has no effect
- colony formation [8]: has no effect
- colony formation [9]: did not affect colony formation
- colony formation [10]: not seen
- sub-G1 fraction (apoptosis) [11]: has no effect
- sub-G1 fraction (apoptosis) [12]: has no effect
- sub-G1 fraction (apoptosis) [13]: has no effect
- Her2 tyrosine kinase activity [14]: inhibit the tyrosine kinase activity of Her2

SMILES: O=P(O)(O)C(O)(Cc1cccnc1)P(=O)(O)O [risedronate]
- cell viability / cell survival [3]: inhibiting cell survival
- cell viability / cell survival [1]: inhibiting cell survival
- Her2 tyrosine kinase activity [14]: inhibit the tyrosine kinase activity of Her2

SMILES: C#Cc1cccc(Nc2ncnc3cc(OCCOC)c(OCCOC)cc23)c1 [erlotinib]
- cell viability [15]: poorly responsive
- colony formation [9]: did not inhibit colony formation
- cell cycle and apoptosis [16]: mainly increased PARP expression and apoptosis
- AKT phosphorylation in tumor samples [17]: inhibited AKT phosphorylation
- CD31 expression (blood vessels) in tumors [17]: inhibited CD31 expression
- ERK phosphorylation in tumor samples [17]: did not inhibit ERK phosphorylation
- Her2 tyrosine kinase activity [14]: inhibit the tyrosine kinase activity of Her2

SMILES: O=P(O)(O)C(O)(Cc1cnc2ccccn12)P(=O)(O)O [minodronic acid]
- cell viability / cell survival [3]: inhibiting cell survival; also recorded: two most potent
- cell viability / cell survival [1]: inhibiting cell survival; also recorded: two most potent
- Her2 tyrosine kinase activity [14]: inhibit the tyrosine kinase activity of Her2

SMILES: NCCCC(O)(P(=O)(O)O)P(=O)(O)O [alendronate]
- EGFR kinase activity [18]: directly inhibited EGFR kinase activity
- cell viability / cell survival [3]: inhibiting cell survival
- cell viability / cell survival [1]: inhibiting cell survival

SMILES: O=P(O)(O)C(NC1CCCCCC1)P(=O)(O)O [incadronate]
- cell viability / cell survival [3]: inhibiting cell survival
- cell viability / cell survival [1]: inhibiting cell survival
